Measurements from US7319093B2, “Antidiabetic 2-substituted-5′-O-(1-Boranotriphosphate) adenosine derivatives” (Bar-Ilan University, priority 2001, dated 2008).
Several values for one entry are separate records, joined by “and”; a condition that tells them apart may be missing. Identical values can stand only once. Like-named read-outs stand apart in the source and are kept apart here.

What was measured:
[1] = test system: isolated and perfused rat pancreas; details: cited from earlier work
[2] = test system: rat isolated and perfused pancreas; assay: Insulin secretion from isolated perfused rat pancreas (8.3 mmol/L glucose)
Description: (§1) The effects of the compounds on insulin secretion and vascular resistance in the rat isolated and perfused pancreas were evaluated in the presence of a slightly stimulating glucose concentration (8.3 mmol/L).
(§2) Experiments were performed in vitro in isolated perfused pancreas from male Wistar albino rats fed ad libitum and weighing 300-350 g. The pancreas was completely isolated according to a technique previously described (Loubatières et al., Diabetologia, 1969, 5, 1-10) and perfused through its own arterial system with a Krebs-Ringer bicarbonate buffer containing 8.3 mmol/L glucose and 2 g/L bovine serum albumin. A mixture of O2 (95%) and CO2 (5%) was bubbled through this medium at atmospheric pressure. The pH of the solution was 7.35. The preparation was maintained at 37.5° C. Each organ was perfused at a constant pressure (40-50 cm water) selected so as to produce a flow rate of 2.5 ml/min at the start of the experiment; in these conditions, any change in the flow rate reflects a change in vascular resistance (Hillaire-Buys et al., Eur. J. Pharmacol., 1991, 199, 309-314). A 30 min adaptation period was allowed before the first sample was taken for insulin assay. A sample was taken 15 min later, at time 45 min. Then, an infusion of ATP analogues was performed during 30 min. The pancreatic flow rate was recorded and insulin was measured in the effluent fractions.
Insulin was assayed by the radioimmunological method of Herbert et al. (J. Clin. Endocrinol. Metab., 1965, 25, 1375-1384) using a purified rat insulin as standard (Linco Research, St. Charles, Mo., USA) and anti-insulin serum (ICN Biochemicals, Miles, Puteaux, France). The assay sensitivity was 0.1 ng/ml. Insulin output from perfused pancreas is expressed as ng/min and was determined by multiplying the hormone concentration in the effluent fraction by the flow rate.
(§3) Results are expressed as means±standard error of the mean (SEM). For the kinetics of insulin secretion and vascular flow rate, the results are expressed as changes in relation to the value at time 45 min taken as 100%. For the determination of the concentration-response relationship, the mean insulin output rate was calculated as follows: the area under the curve for the drug infusion period divided by the number of minutes (AUC/30).

[3] = test system: rat isolated and perfused pancreas; assay: Pancreatic flow rate (vascular resistance) in isolated perfused rat pancreas; details: for change in pancreatic flow rate: baseline 2.5 mL/min at time 45 min = 100%
Description: as §1, §2, §3

[4] = test system: dog; details: cited from earlier work
[5] = test system: fed rats; details: cited from earlier work
[6] = test system: Normal (non diabetic) Wistar rats; assay: Effect on glycemia in vivo, glucose tolerance test; set-up: species or system rat; details: in percent of baseline values, single oral dose 0.2 mg/kg, glucose 2 g/kg i.p., 0-60 min, individual animals 1-4
Description: Normal (non diabetic) Wistar rats were treated with a single oral dose of VK 38A (0.2 mg/kg) or placebo (vehicle) administered just before a glucose tolerance test, in a cross-over experimental design with a 7-day wash-out period. Glucose (2 g/kg) was administered by intraperitoneal injection. Blood samples were taken before and 10, 20, 30, 60 minutes after glucose load to measure glycemia. The area under the curve of plasma glucose concentrations (in percent of baseline values) was calculated. Results in four animals are given in Table 2 (baseline glucose concentrations were 1.26±0.02 and 1.26±0.04 g/L in control and treated animals, respectively).

[7] = test system: rat isolated pancreas; assay: Glucose-dependence of the insulin response in the isolated rat pancreas; details: 20 nmol/L during 20 minutes, mean±sem
Description: The rat isolated pancreas is perfused in vitro with a physiological medium containing different concentrations of glucose. VK 38A is added during 20 minutes at 20 nmol/L. Insulin response is determined by the area under the concentration-time curve during VK 38A administration and is expressed as mean±sem.

[8] = conscious dogs, oral administration
[9] = injected directly to the pancreatico-duodenal artery

## CCCCCCSc1nc(N)c2ncn([C@H]3O[C@@H](COP(O)(=S)OP(=O)(O)OP(=O)(O)O)[C@H](O)[C@@H]3O)c2n1 (stereo partly drawn) [2-hexylthio-ATP-α-S]
[1]; insulin secretion
  enhancement of potency relative to ATP: 100 fold
[1]; nM concentration range
  increase in glucose-induced insulin secretion: up to 500%

## BP(=O)(OC[C@H]1O[C@@H](n2cnc3c(N)ncnc32)[C@H](O)[C@@H]1O)OP(=O)(O)OP(=O)(O)O (stereo partly shown) [VK 39A, adenosine-5′-O-(1-boranotriphosphate)]
[2]
  insulin response compared with VK 38A: clearly less potent than that of VK 38 A
[3]; 0.5 μmol/L
  change in pancreatic flow rate: +7±3%
[3]; 5.0 μmol/L
  change in pancreatic flow rate: +10±3%

## Nc1ncnc2c1ncn2[C@@H]1O[C@H](COP(=O)(O)OP(O)(O)=S)[C@@H](O)[C@H]1O [ADP-β-S, Adenosine 5′-O-(2-thio)diphosphate]
[4]; [8]
  glycemia: reducing glycemia
  insulinemia: transiently increasing insulinemia
[5]
  Insulin response: sustained insulin response
  glycemia: reduction of glycemia

## BP(=O)(OC[C@H]1O[C@@H](n2cnc3c(N)nc(SC)nc32)[C@H](O)[C@@H]1O)OP(=O)(O)OP(=O)(O)O (stereo partly shown) [VK 38B, 2-methylthioadenosine-5′-O-(1-boranotriphosphate)]
[2]
  insulin response compared with VK 38A: less potent than that induced by isomer A
[3]; from the concentration of 15 nmol/L
  transient reduction in pancreatic flow rate (increase in vascular resistance): −27±5%

## CSc1nc(N)c2ncn([C@@H]3O[C@H](COP(=O)(O)OP(=O)(O)OP(=O)(O)O)[C@@H](O)[C@H]3O)c2n1 [2-methylthio-ATP]
[4]; [9]
  glycemia: slightly decreased glycemia
  insulin release: stimulated insulin release

## BP(=O)(OC[C@H]1O[C@@H](n2cnc3c(N)nc(SC)nc32)[C@H](O)[C@@H]1O)OP(=O)(O)OP(=O)(O)O (stereo partly shown) [VK 38A, 2-methylthioadenosine-5′-O-(1-boranotriphosphate)]
[2]
  maximal effect on insulin secretion (AUC for 30 min in % per min): approximately 900%
[2]; 1.5 nmol/L, value at time 45 min taken as 100%
  transient monophasic insulin response: 230%
[2]; 30 min infusion
  concentration range of immediate and concentration-dependent insulin response: 0.0015 to 5.0 µmol/L
[3]; 0.5 μmol/L
  change in pancreatic flow rate: −6±3%
[3]; 1.5 μmol/L
  change in pancreatic flow rate: −10±3%
[3]; 5.0 μmol/L
  change in pancreatic flow rate: −8±6%
[3]; till 150 nmol/L
  vascular effects (pancreatic flow rate): no significant effect
[6]
  AUC (VK38A-treated): area under the curve of plasma glucose concentrations: 158 and 201 and 134 and 176
[7]; glucose 2.8 mmol/L
  Insulin response: 0.97 ± 0.03 ng/min
[7]; glucose 5.0 mmol/L
  Insulin response: 2.68 ± 0.52 ng/min
[7]; glucose 8.3 mmol/L
  Insulin response: 33.12 ± 1.75 ng/min

## BP(=O)(OC[C@H]1O[C@@H](n2cnc3c(N)nc(Cl)nc32)[C@H](O)[C@@H]1O)OP(=O)(O)OP(=O)(O)O (stereo partly shown) [VK 44A, 2-chloroadenosine-5′-O-(1-boranotriphosphate)]
[2]
  insulin response compared with VK 38A: comparable to that of VK 38A
[3]; 0.015 μmol/L
  change in pancreatic flow rate: +8±3%
[3]; 0.15 μmol/L
  change in pancreatic flow rate: +16±5%
[3]; 1.5 μmol/L
  change in pancreatic flow rate: +12±5%
